Measured values published in patent US20200078453A1, “METHODS OF TREATING A MAMMAL SUFFERING FROM OR SUSCEPTIBLE TO AN IMMUNE REACTION TO DRUG TREATMENT” (Idogen AB, priority 2015, published 2020).
Where two headings read alike, the source gives them in different places.

Columns and labels:
[1] = system: IDO1 gene expression (mRNA level) in THP-1 cells; assay: Induction of IDO1 in THP-1 cells, RT-qPCR; format: cell-based, human; details: compound alone, 0.1-10 micromolar
Method: THP-1 cells were harvested from appropriate number of T75 flasks. Cells were counted in a Bürker chamber, stained with 0.4% Trypan Blue. The appropriate number of cells for each experiment were transferred to a new tube and centrifuged at 1200 rpm, 5 min at room temperature (RT). The supernatant was discarded and fresh RPMI with 5% FBS were added to get a cell concentration of 2×10^5 cells/mL. The compound was added to the five separate wells in 6-well plates such that five different final concentrations were obtained after adding the cells. A control was added to one well in the 6-well plate to which cells were added. 1×10^6 cells per well were seeded out to achieve a total volume of 5 mL per well. The cells were incubated at 37° C. in 5% CO2 for 96 hours. After 96 hours the assay was stopped and the cells were lysed for the isolation of RNA.
Total RNA was extracted from THP-1 cells using the RNA RNeasy Mini extraction kit (Qiagen), according to the manufacturer's instructions. […]
Following RNA extraction and quantification of gene expression by RT-qPRC, as described above, induction of IDO1 gene expression using Samples 1 to 6 was investigated. […]
Following RNA extraction and quantification of gene expression by RT-qPRC, as described above, induction of IDO1 gene expression using Samples 7 to 12 was investigated.

[2] = cited from earlier work
[3] = cited from earlier work; remark: listed apart in the source

Row | SMILES | increase of IDO1 gene expression (maximum) [1] | toxicity ([2]; at high concentrations) | cytotoxicity ([2]; in vitro and in vivo, at used concentrations) | half-life ([3]; 37° C. in PBS at pH 1.0) | half-life ([3]; 37° C. in PBS at pH 7.0) [days]
1 | Nc1ncn([C@@H]2O[C@H](CO)[C@@H](O)[C@H]2O)c(=O)n1 [5-azacytidine] | up to 23 fold |  |  |  | 
2 | O=c1ncccn1[C@@H]1O[C@H](CO)[C@@H](O)[C@H]1O [Zebularine] |  | toxic | minimally cytotoxic | approximately 44 h | ~21.2
3 | Nc1ncn([C@H]2C[C@H](O)[C@@H](CO)O2)c(=O)n1 [decitabine, 5-aza-2′-deoxycytidine] | up to 101 fold |  |  |  | 
